Measurements from patent US12084472B2 (Ardelyx, Inc., priority 2015, dated 2024).

biological target: T1, human TGR5 (Homo sapiens, UniProt Q8TDU6); assay: Cell-based TGR5 assay (cAMP generation, HTRF); conditions: HEK293 cells stably transfected with human TGR5; cAMP by HTRF; 30 minutes at 37° C.; read-out: pEC50 Human TGR5 (converted)
T1 construct: expressed in transfected cells; host or cells: HEK293
T1 sequence (Q8TDU6 1-330): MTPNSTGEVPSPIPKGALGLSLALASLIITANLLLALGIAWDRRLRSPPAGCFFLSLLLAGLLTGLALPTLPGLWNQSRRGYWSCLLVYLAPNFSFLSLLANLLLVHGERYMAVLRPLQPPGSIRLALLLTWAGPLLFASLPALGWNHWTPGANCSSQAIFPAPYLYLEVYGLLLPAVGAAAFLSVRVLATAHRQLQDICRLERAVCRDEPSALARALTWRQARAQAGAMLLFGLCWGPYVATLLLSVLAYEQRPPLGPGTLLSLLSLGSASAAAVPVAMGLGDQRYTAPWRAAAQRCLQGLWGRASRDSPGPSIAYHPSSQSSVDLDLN
How it was run: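 Read-out was HTRF detection of cAMP, converted to concentration via a standard curve and fitted (3-parameter logistic) for pEC50 and maximal response. Agonist stimulation used HEK293 cells stably transfected with human TGR5, incubated 30 min at 37° C in IBMX-containing buffer at 0.05 nM to 10 μM compound.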

Question: How did the EC50 turn out when `O=C(CN1CCN(C(=O)CCCCc2cc(Cl)c(COC3(c4cnccc4-c4ccccc4OC4CC4)CC3)cc2Cl)CC1)NC[C@H](O)[C@@H](O)[C@H](O)[C@H](O)CO` [Compound I-98, 2-(4-{5-[2,5-dichloro-4-({1-[4-(2-cyclopropoxyphenyl)pyridin-3-yl]cyclopropoxy}methyl)phenyl]pentanoyl}piperazin-1-yl)-N-[(2S,3R,4R,5R)-2,3,4,5,6-pentahydroxyhexyl]acetamide] was run?
Answer: The EC50 was under 100 nM.

Question: For `O=C(COCC1CCN(S(=O)(=O)c2ccc(Cl)c(COC3(c4cnccc4-c4ccccc4OC4CC4)CC3)c2)C1)NC[C@H](O)[C@@H](O)[C@H](O)[C@H](O)CO` (stereo partly drawn) [Compound I-455, 2-({1-[4-chloro-3-({1-[4-(2-cyclopropoxyphenyl)pyridin-3-yl]cyclopropoxy}methyl)benzenesulfonyl]pyrrolidin-3-yl}methoxy)-N-[(2S,3R,4R,5R)-2,3,4,5,6-pentahydroxyhexyl]acetamide], which EC50 is on record?
Answer: Its EC50 is under 100 nM.

Question: With `Cc1ccc(C(F)(F)F)cc1CNC1(c2cnccc2-c2ccccc2OC2CC2)CC1` [Compound I-37, 1-[4-(2-cyclopropoxyphenyl)pyridin-3-yl]-N-{[2-methyl-5-(trifluoromethyl)phenyl]methyl}cyclopropan-1-amine] as the molecule, how does the EC50 read?
Answer: Its EC50 is under 100 nM.

Question: With `Cn1c(C(=O)NC[C@H](O)[C@@H](O)[C@H](O)[C@H](O)CO)cnc1SCc1ccc(Cl)c(COC2(c3cnccc3-c3ccccc3OC3CC3)CC2)c1` [Compound I-758, 2-((4-chloro-3-((1-(4-(2-cyclopropoxyphenyl)pyridin-3-yl)cyclopropoxy)methyl)benzyl)thio)-1-methyl-N-((2S,3R,4R,5R)-2,3,4,5,6-pentahydroxyhexyl)-1H-imidazole-5-carboxamide] as the molecule, how does the EC50 read?
Answer: Its EC50 is 126 to 1000 nM.

Question: How did the EC50 turn out when `Cc1ccc(C(C)CCCNC(=O)NC[C@H](O)[C@@H](O)[C@H](O)[C@H](O)CO)cc1CNC1(c2cnccc2-c2ccccc2OC2CC2)CC1` (stereo partly drawn) [Compound I-271, 1-(4-{3-[({l-[4-(2-cyclopropoxyphenyl)pyridin-3-yl]cyclopropyl}amino)methyl]-4-methylphenyl}pentyl)-3-[(2S,3R,4R,5R)-2,3,4,5,6-pentahydroxyhexyl]urea] was run?
Answer: Its EC50 is under 100 nM.

Question: `CC(=O)NCCCCN(CCCCSc1ccc(Cl)c(CNC2(c3cnccc3-c3ccccc3OC3CC3)CC2)c1)C(=O)[C@@H](O)[C@@H](O)[C@H](O)[C@@H](O)CO` [Compound I-567, (2S,3S,4R,5S)-N-[4-({4-chloro-3-[({1-[4-(2-cyclopropoxyphenyl)pyridin-3-yl]cyclopropyl}amino)methyl]phenyl}sulfanyl)butyl]-N-(4-acetamidobutyl)-2,3,4,5,6-pentahydroxyhexanamide] was tested. Which EC50 did it give?
Answer: Its EC50 is 126 to 1000 nM.

Question: Which EC50 does the source give for `CNC(=O)CN(C[C@H](O)[C@@H](O)[C@H](O)[C@H](O)CO)C(=O)CCCC(C)c1ccc(Cl)c(CNC2(c3cnccc3-c3ccccc3OC3CC3)CC2)c1` (stereo partly drawn) [Compound I-336, 5-{4-chloro-3-[({1-[4-(2-cyclopropoxyphenyl)pyridin-3-yl]cyclopropyl}amino)methyl]phenyl}-N-[(methylcarbamoyl)methyl]-N-[(2S,3R,4R,5R)-2,3,4,5,6-pentahydroxyhexyl]hexanamide] here?
Answer: Its EC50 is under 100 nM.

Question: With `Cc1ccc([C@H](C)CCCC(=O)N(C)C[C@H](O)[C@@H](O)[C@H](O)[C@H](O)CO)cc1CNC1(c2cnccc2-c2ccccc2OC2CC2)CC1` (single isomer, unassigned) [Compound I-351] as the molecule, how does the EC50 read?
Answer: The EC50 was under 100 nM.

Question: With `Cc1ccc(C(C)CCCCNC(=O)NC[C@H](O)[C@@H](O)[C@H](O)[C@H](O)CO)cc1COC1(c2cnccc2-c2ccccc2OC2CC2)CC1` (stereo partly drawn) [Compound I-276, 1-{5-[3-({1-[4-(2-cyclopropoxyphenyl)pyridin-3-yl]cyclopropoxy}methyl)-4-methylphenyl]hexyl}-3-[(2S,3R,4R,5R)-2,3,4,5,6-pentahydroxyhexyl]urea] as the molecule, how does the EC50 read?
Answer: Its EC50 is under 100 nM.

Question: How did the EC50 turn out when `O=C(NCCOCCSc1ccc(Cl)c(COC2(c3cnccc3-c3ccccc3OC3CC3)CC2)c1)NC[C@H](O)[C@@H](O)[C@H](O)[C@H](O)CO` [Compound I-490, 1-[2-(2-[[4-Chloro-3-([1-[4-(2-cyclopropoxyphenyl)pyridin-3-yl]cyclopropoxy]methyl)phenyl]sulfanyl]ethoxy)ethyl]-3-[(2S,3R,4R,5R)-2,3,4,5,6-pentahydroxyhexyl]urea] was run?
Answer: The EC50 was under 100 nM.

Question: Which EC50 does the source give for `CC(CCSc1ccc(Cl)c(COC2(c3cnccc3-c3ccccc3OC3CC3)CC2)c1)C(=O)NC[C@H](O)[C@@H](O)[C@H](O)[C@H](O)CO` (stereo partly drawn) [Compound I-690, 4-{[4-chloro-3-({1-[4-(2-cyclopropoxyphenyl)pyridin-3-yl]cyclopropoxy}methyl)phenyl]sulfanyl}-2-methyl-N-[(2S,3R,4R,5R)-2,3,4,5,6-pentahydroxyhexyl]butanamide] here?
Answer: Its EC50 is under 100 nM.

Question: With `CN(CCCCNC(=O)N[C@@H](CO)[C@@H](O)[C@@H](O)[C@H](O)CO)S(=O)(=O)c1ccc(Cl)c(COC2(c3cnccc3-c3ccccc3OC3CC3)CC2)c1` [Compound I-776, 4-chloro-3-((1-(4-(2-cyclopropoxyphenyl)pyridin-3-yl)cyclopropoxy)methyl)-N-methyl-N-(4-(3-((2S,3R,4R,5R)-1,3,4,5,6-pentahydroxyhexan-2-yl)ureido)butyl)benzenesulfonamide] as the molecule, how does the EC50 read?
Answer: Its EC50 is under 100 nM.

Question: With `CC(CCCN(CCS(C)(=O)=O)C(=O)[C@@H](O)[C@@H](O)[C@H](O)[C@@H](O)CO)c1ccc(Cl)c(COC2(c3cnccc3-c3ccccc3OC3CC3)CC2)c1` (stereo partly drawn) [Compound I-309, (2S,3S,4R,5S)-N-(4-[4-chloro-3-({1-[4-(2-cyclopropoxyphenyl)pyridin-3-yl]cyclopropoxy)methyl)phenyl]pentyl}-2,3,4,5,6-pentahydroxy-N-(2-methanesulfonylethyl)hexanamide] as the molecule, how does the EC50 read?
Answer: The EC50 was under 100 nM.

Question: `CC(C)N(CCCCNC(=O)N[C@@H](CO)[C@@H](O)[C@H](O)[C@H](O)CO)S(=O)(=O)c1ccc(Cl)c(COC2(c3cnccc3-c3ccccc3OC3CC3)CCC2)c1` [Compound I-746, 4-chloro-3-((1-(4-(2-cyclopropoxyphenyl)pyridin-3-yl)cyclobutoxy)methyl)-N-isopropyl-N-(4-(3-((2S,3R,4S,5R)-1,3,4,5,6-pentahydroxyhexan-2-yl)ureido)butyl)benzenesulfonamide] was tested. Which EC50 did it give?
Answer: Its EC50 is under 100 nM.

Question: Which EC50 does the source give for `Cc1ccc(C(C)CCCC(=O)N2CCN(CC(=O)NC[C@H](O)[C@@H](O)[C@H](O)[C@H](O)CO)CC2)cc1CNC1(c2cnccc2-c2ccccc2OC2CC2)CC1` (stereo partly drawn) [Compound I-371, 2-[4-(5-{3-[({1-[4-(2-cyclopropoxyphenyl)pyridin-3-yl]cyclopropyl}amino)methyl]-4-methylphenyl}hexanoyl)piperazin-1-yl]-N-[(2S,3R,4R,5R)-2,3,4,5,6-pentahydroxyhexyl]acetamide] here?
Answer: The EC50 was under 100 nM.

Question: `O=C(NC[C@H](O)[C@@H](O)[C@H](O)[C@H](O)CO)[C@H]1[C@@H]2CN(S(=O)(=O)c3ccc(Cl)c(COC4(c5cnccc5-c5ccccc5OC5CC5)CC4)c3)C[C@@H]21` [Compound I-435, (1R,5S,6S)-3-[4-chloro-3-({1-[4-(2-cyclopropoxyphenyl)pyridin-3-yl]cyclopropoxy}methyl)benzenesulfonyl]-N-[(2S,3R,4R,5R)-2,3,4,5,6-pentahydroxyhexyl]-3-azabicyclo[3.1.0]hexane-6-carboxamide] was tested. Which EC50 did it give?
Answer: Its EC50 is under 100 nM.
